Reference: article PMC12238723, “Phase I Clinical Trial of CVL218, a Novel PARP1/2 Inhibitor, in Patients with Advanced Solid Tumors” (MedComm, 2025)

Assays:
[1] = test system: patients with advanced solid tumors; assay: Dose-limiting toxicity, MTD and recommended dose; assay type: in vivo
Protocol: CVL218 was administered orally, and this dose‐escalation trial included nine dose levels: 100 mg QD (50 mg BID), 200 mg QD (100 mg BID), 400 mg QD (200 mg BID), 700 mg QD (350 mg BID), 1000 mg QD (500 mg BID), 1200 mg QD (600 mg BID), 1400 mg QD (700 mg BID), 1700 mg QD (850 mg BID), and 2000 mg QD (1000 mg BID). Patients enrolled in the study received a single oral dose on the first day, followed by continuous multiple dosing (twice a day taking 12 h apart) after 72 h, with the treatment cycle lasting 4 weeks. The period during which patients received a single dose is designated as cycle 0 (C0), lasting 72 h. After this period, patients begin multiple dosing, referred to as cycle 1 (C1). An initial accelerated titration design was employed for the three lowest dose groups, and the “3+3” design was applied starting with the 300 mg BID cohort.
The primary objectives were to assess safety and tolerability as well as to determine the MTD, DLT, and dose recommended for further study. DLT was defined as any of the following events occurring during cycle 0 (including 72 h wash‐out period after a single dose) and cycle 1 per Common Terminology Criteria for Adverse Events (CTCAE) version 5.0: grade 4 anemia; grade 4 neutropenia; grade 3 neutropenia with fever ≥38.5°C; grade 4 thrombocytopenia; grade 3 thrombocytopenia associated with bleeding; grade ≥2 neurotoxicity; any other grade ≥3 nonhematological toxicities (excluding alopecia). The secondary objectives were to assess the PK and preliminary efficacy of CVL218.

[2] = Plasma PK after multiple oral doses (Cycle 1 Day 28); assay type: in vivo, patients
Protocol: The period during which patients received a single dose is designated as cycle 0 (C0), lasting 72 h. After this period, patients begin multiple dosing, referred to as cycle 1 (C1). An initial accelerated titration design was employed for the three lowest dose groups, and the “3+3” design was applied starting with the 300 mg BID cohort. […] Single-dose and multiple-dose PK parameters included C max, T max, elimination half-life (T 1/2), AUC0- t , AUC0-inf, oral clearance (CL/F), and apparent volume of distribution (V z/F) for CVL218. Tumor response was assessed per RECIST 1.1. ORR was defined as proportion of patients with a CR or PR on at least one visit, while DCR was defined as proportion of patients with a CR or PR or SD. PFS was defined as the time from the first dose of either drug to investigator assessed radiologic PD or to death of any cause. PFS would be censored at the time of last tumor assessment. Subjects who received at least one dose of CVL218 with postadministration safety records were included in safety analysis set. Subjects who received at least one dose of CVL218 with at least one evaluable PK parameter were included in PK analysis set. Per-protocol set were used for efficacy analysis. Descriptive statistics of safety were presented per CTCAE v5.0. The PK parameters T max and T 1/2 were shown as the median (min, max) and mean ± SD, respectively. A two-sided p < 0.05 was considered to indicate statistical significance. Statistical analysis was performed by using GraphPad prism 8.0.2 and R-4.3.3.

[3] = multiple doses C1D28, 50mg BID, n 1
[4] = multiple doses C1D28, 100mg BID, n 1
[5] = multiple doses C1D28, 200mg BID, n 1
[6] = multiple doses C1D28, 350mg BID, n 4
[7] = multiple doses C1D28, 500mg BID, n 4
[8] = multiple doses C1D28, 600mg BID, n 4
[9] = multiple doses C1D28, 700mg BID, n 6
[10] = multiple doses C1D28, 850mg BID, n 5

CNCc1ccc(-c2cc3cc(F)cc(C(N)=O)c3o2)cc1.Cl [CVL218]
Any DLT ([1]; 50 mg BID (N = 1)): 0 n (%)
DLT: Increased creatinine ([1]; 50 mg BID (N = 1)): 0 n (%)
DLT: Renal failure ([1]; 50 mg BID (N = 1)): 0 n (%)
Any DLT ([1]; 100 mg BID (N = 1)): 0 n (%)
DLT: Increased creatinine ([1]; 100 mg BID (N = 1)): 0 n (%)
DLT: Renal failure ([1]; 100 mg BID (N = 1)): 0 n (%)
Any DLT ([1]; 200 mg BID (N = 1)): 0 n (%)
DLT: Increased creatinine ([1]; 200 mg BID (N = 1)): 0 n (%)
DLT: Renal failure ([1]; 200 mg BID (N = 1)): 0 n (%)
Any DLT ([1]; 350 mg BID (N = 4)): 0 n (%)
DLT: Increased creatinine ([1]; 350 mg BID (N = 4)): 0 n (%)
DLT: Renal failure ([1]; 350 mg BID (N = 4)): 0 n (%)
Any DLT ([1]; 500 mg BID (N = 4)): 0 n (%)
DLT: Increased creatinine ([1]; 500 mg BID (N = 4)): 0 n (%)
DLT: Renal failure ([1]; 500 mg BID (N = 4)): 0 n (%)
Any DLT ([1]; 600mg BID (N=4)): 0 n (%)
DLT: Increased creatinine ([1]; 600mg BID (N=4)): 0 n (%)
DLT: Renal failure ([1]; 600mg BID (N=4)): 0 n (%)
Any DLT ([1]; 700 mg BID (N = 6)): 1 (16.7) n (%)
DLT: Increased creatinine ([1]; 700 mg BID (N = 6)): 0 n (%)
DLT: Renal failure ([1]; 700 mg BID (N = 6)): 1 (16.7) n (%)
Any DLT ([1]; 850mg BID (N=5)): 2 (40.0) n (%)
DLT: Increased creatinine ([1]; 850mg BID (N=5)): 2 (40.0) n (%)
DLT: Renal failure ([1]; 850mg BID (N=5)): 0 n (%)
Any DLT ([1]; Overall (N=26)): 3 (11.5) n (%)
DLT: Increased creatinine ([1]; Overall (N=26)): 2 (7.7) n (%)
DLT: Renal failure ([1]; Overall (N=26)): 1 (3.8) n (%)
recommended dose for further study ([1]; oral): 700 mg BID
maximum tolerated dose (MTD) ([1]; oral, patients with advanced solid tumors): 700 mg BID
AUC0-24, Geometric Mean [2, 3]: 70.9 ng·h/mL
AUC0-t, Geometric Mean [2, 3]: 77.9 ng·h/mL
AUC_TAU, Mean [2, 3]: 70.9 ng·h/mL
Cavgss, Mean [2, 3]: 5.91 ng/mL
Cl/F, Geometric Mean [2, 3]: 705000.0 mL/h
Cmax, Geometric Mean [2, 3]: 15.6 ng/mL
Cminss, Mean [2, 3]: 0 ng/mL
Vz/F, Geometric Mean [2, 3]: 6870000.0 mL
AUC0-24, Geometric Mean [2, 4]: 822.0 ng·h/mL
AUC0-t, Geometric Mean [2, 4]: 1930.0 ng·h/mL
AUC_TAU, Mean [2, 4]: 822 ng·h/mL
Cavgss, Mean [2, 4]: 68.5 ng/mL
Cl/F, Geometric Mean [2, 4]: 122000.0 mL/h
Cmax, Geometric Mean [2, 4]: 148.0 ng/mL
Cminss, Mean [2, 4]: 38 ng/mL
Vz/F, Geometric Mean [2, 4]: 1750000.0 mL
AUC0-24, Geometric Mean [2, 5]: 808.0 ng·h/mL
AUC0-t, Geometric Mean [2, 5]: 1360.0 ng·h/mL
AUC_TAU, Mean [2, 5]: 808 ng·h/mL
Cavgss, Mean [2, 5]: 67.3 ng/mL
Cl/F, Geometric Mean [2, 5]: 248000.0 mL/h
Cmax, Geometric Mean [2, 5]: 156.0 ng/mL
Cminss, Mean [2, 5]: 28.6 ng/mL
Vz/F, Geometric Mean [2, 5]: 4780000.0 mL
AUC0-24, Geometric Mean [2, 6]: 2230.0 ng·h/mL
AUC0-inf, Geometric Mean [2, 6]: 5860.0 ng·h/mL
AUC0-t, Geometric Mean [2, 6]: 4750.0 ng·h/mL
AUC_TAU, Mean [2, 6]: 2170 ng·h/mL
Cavgss, Mean [2, 6]: 181 ng/mL
Cl/F, Geometric Mean [2, 6]: 157000.0 mL/h
Cmax, Geometric Mean [2, 6]: 313.0 ng/mL
Cminss, Mean [2, 6]: 72.2 ng/mL
T1/2, Mean [2, 6]: 5.4 h
Vz/F, Geometric Mean [2, 6]: 1400000.0 mL
AUC0-24, Geometric Mean [2, 7]: 3210.0 ng·h/mL
AUC0-inf, Geometric Mean [2, 7]: 6920.0 ng·h/mL
AUC0-t, Geometric Mean [2, 7]: 6830.0 ng·h/mL
AUC_TAU, Mean [2, 7]: 3870 ng·h/mL
Cavgss, Mean [2, 7]: 323 ng/mL
Cl/F, Geometric Mean [2, 7]: 158500.0 mL/h
Cmax, Geometric Mean [2, 7]: 562.5 ng/mL
Cminss, Mean [2, 7]: 177 ng/mL
T1/2, Mean [2, 7]: 4.1 h
Vz/F, Geometric Mean [2, 7]: 1380000.0 mL
AUC0-24, Geometric Mean [2, 8]: 1880.0 ng·h/mL
AUC0-inf, Geometric Mean [2, 8]: 7700.0 ng·h/mL
AUC0-t, Geometric Mean [2, 8]: 2560.0 ng·h/mL
AUC_TAU, Mean [2, 8]: 2810 ng·h/mL
Cavgss, Mean [2, 8]: 234 ng/mL
Cl/F, Geometric Mean [2, 8]: 318000.0 mL/h
Cmax, Geometric Mean [2, 8]: 311.0 ng/mL
Cminss, Mean [2, 8]: 118 ng/mL
T1/2, Mean [2, 8]: 5.1 h
Vz/F, Geometric Mean [2, 8]: 2440000.0 mL
AUC0-24, Geometric Mean [2, 9]: 3830.0 ng·h/mL
AUC0-inf, Geometric Mean [2, 9]: 4170.0 ng·h/mL
AUC0-t, Geometric Mean [2, 9]: 3830.0 ng·h/mL
AUC_TAU, Mean [2, 9]: 4450 ng·h/mL
Cavgss, Mean [2, 9]: 371 ng/mL
Cl/F, Geometric Mean [2, 9]: 183000.0 mL/h
Cmax, Geometric Mean [2, 9]: 660.0 ng/mL
Cminss, Mean [2, 9]: 127 ng/mL
T1/2, Mean [2, 9]: 3.9 h
Vz/F, Geometric Mean [2, 9]: 1090000.0 mL
AUC0-24, Geometric Mean [2, 10]: 5150.0 ng·h/mL
AUC0-inf, Geometric Mean [2, 10]: 2940.0 ng·h/mL
AUC0-t, Geometric Mean [2, 10]: 5150.0 ng·h/mL
AUC_TAU, Mean [2, 10]: 5150 ng·h/mL
Cavgss, Mean [2, 10]: 429 ng/mL
Cl/F, Geometric Mean [2, 10]: 230000.0 mL/h
Cmax, Geometric Mean [2, 10]: 776.0 ng/mL
Cminss, Mean [2, 10]: 194 ng/mL
T1/2, Mean [2, 10]: 4.4 h
Vz/F, Geometric Mean [2, 10]: 1532500.0 mL
median Tmax ([2]; multiple doses, range over cohorts): 1 to 3 h
mean half-life ([2]; multiple oral doses, range over cohorts): 3.9 to 5.4 h
median Tmax ([2]; recommended dose of 700 mg BID): 2 h
